Test results: patent publication US5221682A, “Heteroarylamino- and heteroaryloxypyridinamines and related compounds” (Hoechst-Roussel Pharmaceuticals Incorporated, priority 1991, dated 1993)

Columns and labels:
[1] = system: mouse ear edema induced by topical application of arachidonic acid; experiment: Arachidonic Acid-Induced Ear Edema (AAEE); format: in vivo, Female Swiss Webster mice; conditions: for AAEE: 1 mg (1.0 mg/ear)
Description: Arachidonic Acid-Induced Ear Edema (AAEE)
Female Swiss Webster mice topically received vehicle or test compound (1.0 mg/ear) on both ears (10 μl on outer and inner ears). After 30 minutes, the right ear of all groups received arachidonic acid (4 mg/ear) and the left ear received vehicle alone. […] See Young, J. M. et al., Invest. Dermatol., 80, (1983), pp 48-52.

[2] = system: naja naja (snake venom) phospholipase A2 -induced paw edema; experiment: Phospholipase A2-induced Paw Edema (PIPE); format: in vivo, male Wistar rats; conditions: for PIPE, difference in edema vs. control: 0.1M, rat, subplantar injection, two hours
Description: Phospholipase A2 -induced Paw Edema (PIPE)
The ability of compounds to prevent naja naja (snake venom) phospholipase A2 -induced paw edema in male Wistar rats (100-125 g) was measured. PLA2 (3 units/paw) alone or with 0.1M of the test compound was injected in the subplantar region of the rat left hindpaw. Immediately subsequent to the injection and at two hours post administration the paw was immersed in a mercury bath, and paw displacement was measured on a recorder via a transducer. […] See Giessler, A. J. et al., Agents and Actions, Vol. 10, Trends in Inflammation Research (1981), p. 195.

porcine pancreatic PLA2 = target: T1, porcine pancreatic PLA2 (Sus scrofa, UniProt P00592); experiment: In Vitro Phospholipase A2 Assay (PLA2); format: biochemical; conditions: 0.01M; read-out: PLA2 (difference vs. control)
T1 construct: from tissue; host or cells: porcine pancreas
Description: In Vitro Phospholipase A2 Assay (PLA2)
The ability of a compound to modulate PLA2 activity (cleavage of ^14 C-dipalmitoyl phosphotidylcholine at the 2-position to ^14 C-palmitic acid) was quantitated in this assay. The reaction mixture contained Tris buffer (25 mM), pH 8.0, calcium chloride (2.0 mM), bovine serum albumin (0.5 mg), dipalmitoyl phosphotidylcholine (8×10^-5M), (^14 C-palmitoyl)dipalmitoyl phosphotidylcholine (6×10^3cpm), porcine pancreatic PLA2 (3.2 units) and the test compound. The reaction was run at 37° C. in a shaking incubator. The reaction was quenched and an internal standard was added in order to determine sample recovery. The samples were loaded onto C18 columns, eluted with ethanol, and the radioactivity was then measured. […] See Feyen, J. H. M., et al., Journal of Chromatography 259 (1983), pp. 338-340.

[3] = system: ear edema induced by topical application of TPA (phorbol 12-myristate acetate); experiment: TPA-Induced Ear Edema (TPAEE); conditions: for change in vivo at 10 µg/ear: Mus musculus, 5 h, read-out: TPAEE
Description: Female Swiss Webster mice topically received TPA (10 μg/ear) on the right ear and vehicle on the left ear. The test compound (10 μg/ear) was applied to both ears. After five hours, the animals were sacrificed and an ear punch (4 mm) was taken from each ear. The difference in right and left ear punch weights for each animal was determined to assess activity.

epidermal DNA synthesis = experiment: Epidermal DNA Synthesis (in vivo DNA); set-up: species or system HRS/J hairless mice; conditions: topical, hairless mice; for in vivo DNA: 2.5 mg
Description: Epidermal DNA Synthesis (in vivo DNA)
The influence of compounds on the proliferation of skin was assessed by determining inhibition or stimulation of DNA synthesis. HRS/J hairless mice received topical application of a compound or vehicle alone on the dorsal aspect. After 24 hours, ^3 H-thymidine (25 μCi) was administered by intraperitonal injection. After an additional hour, animals were sacrificed and the dorsal skin was removed. The epidermal layer was peeled from the dermis by heat separation. Unincorporated ^3 H-thymidine was removed by washing successively with trichloroacetic acid and ethanol. Samples were centrifuged at 2,000 rpm and supernatants discarded. The epidermal sheets were then extracted with warm trichloroacetic acid and the supernatants analyzed for ^3 H-thymidine incorporation by scintillation counting and total DNA by a standard colorimetric assay. […] See Lowe, N. J., et al., Arch. Dermatol., 117 (1981), pp. 394-8; and Burton, K., Biochem. J. 62 (1956), pp. 315-22.

[4] = system: cultured human epidermal keratinocytes; experiment: Culture Human Keratinocyte DNA Synthesis (in vitro DNA); format: cell-based
Description: Culture Human Keratinocyte DNA Synthesis (in vitro DNA)
The effect of a compound on the proliferation of cultured human epidermal keratinocytes was measured. After incubation with a test compound for 24 hours, the cultures were pulse-labelled for three hours with 5 μCi of ^3 H-thymidine. The cultures were extracted for DNA successively with trichloroacetic acid and ethanol, and thereafter dissolved with NaOH. The radioactive incorporation of ^3 H-thymidine into DNA was determined.

T1 sequence (P00592 23-146): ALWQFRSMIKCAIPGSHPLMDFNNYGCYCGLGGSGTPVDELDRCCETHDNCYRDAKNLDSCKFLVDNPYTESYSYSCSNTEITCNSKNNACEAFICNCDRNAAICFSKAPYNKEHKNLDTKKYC

Row | Compound | AAEE [1] | PIPE, difference in edema vs. control [2] | inhibition at 10000 µM (porcine pancreatic PLA2) | change in vivo at 10 µg/ear [3] | other results
1 | CC(=O)N1CCc2cc(Nc3cnccc3N)ccc21 [1-Acetyl-N-(4-amino-3-pyridinyl)-2,3-dihydro-1H-indol-5-amine] | -36% |  |  |  | 
2 | Cn1ccc2cc(Nc3c[n+]([O-])ccc3[N+](=O)[O-])ccc21 [1-Methyl-N-(4-nitro-3-pyridinyl)-1H-indol-5-amine, N^5-oxide] |  | -41% | 66% | -30% | 
3 | Nc1ccncc1Oc1ccc2[nH]ccc2c1 [3-[(1H-Indol-5-yl)-oxy]-4-pyridinamine, 3-[(1H-Indol-5-yl)oxy]-4-pyridinamine] | -50% | -62% | 34% | -42% | in vivo DNA (epidermal DNA synthesis): -37%
4 | Nc1cnccc1Oc1ccc2[nH]ccc2c1 [4-[(1H-Indol-5-yl)-oxy]-3-pyridinamine, 4-[(1H-Indol-5-yl)oxy]-3-pyridinamine] |  | -52% |  |  | 
5 | Nc1cnccc1Nc1ccc2[nH]ccc2c1 [N-(3-Amino-4-pyridinyl)-1H-indol-5-amine] | -37% |  | 82% |  | 
6 | O=[N+]([O-])c1cnccc1Nc1ccc2[nH]ccc2c1 [N-(3-Nitro-4-pyridinyl)-1H-indol-5-amine] |  |  | 36% |  | 
7 | Cn1ccc2cc(Nc3cnccc3N)ccc21 [N-(4-Amino-3-pyridinyl)-1-methyl-1H-indol-5-amine] |  | -42% | 62% |  | 
8 | Nc1ccncc1Nc1ccc2cn[nH]c2c1 [N-(4-Amino-3-pyridinyl)-1H-indazol-6-amine] | -35% |  | 57% |  | 
9 | Nc1ccncc1Nc1ccc2[nH]ccc2c1 [N-(4-Amino-3-pyridinyl)-1H-indol-5-amine] | -41% | -67% | 87% | -85% | inhibition at 50 µM ([4]; 50 μM, 24 hours): 81%; in vivo DNA (epidermal DNA synthesis): -27%
10 | Nc1cc[n+]([O-])cc1Nc1cccc2cc[nH]c12 [N-(4-Amino-3-pyridinyl)-1H-indol-7-amine, N^7-oxide] |  | -45% |  | -38% | 
11 | O=[N+]([O-])c1cc[n+]([O-])cc1Nc1ccc2[nH]ncc2c1 [N-(4-Nitro-3-pyridinyl)-1H-indazol-5-amine, N^5-oxide] |  |  |  | -78% | 
12 | O=[N+]([O-])c1cc[n+]([O-])cc1Nc1ccc2cn[nH]c2c1 [N-(4-Nitro-3-pyridinyl)-1H-indazol-6-amine, N^6-oxide] |  |  | 83% |  | 
13 | O=[N+]([O-])c1cc[n+]([O-])cc1Nc1ccc2[nH]ccc2c1 [N-(4-Nitro-3-pyridinyl)-1H-indol-5-amine, N^5-oxide] |  |  | 71% |  | 
14 | O=[N+]([O-])c1cc[n+]([O-])cc1Nc1cccc2cc[nH]c12 [N-(4-Nitro-3-pyridinyl)-1H-indol-7-amine, N^7-oxide] |  |  |  | -40% | 
15 | O=[N+]([O-])c1cc[n+]([O-])cc1NC1CCc2ccccc21 (stereo not drawn) [N-(Indan-1-yl)-4-nitro-3-pyridinamine-1-oxide] |  |  |  | -65% | 
16 | O=[N+]([O-])c1cc[n+]([O-])cc1Nc1ccc2c(c1)CCC2 [N-(Indan-5-yl)-4-nitro-3-pyridinamine-1-oxide] | -44% |  |  | -48% | 
17 | Nc1ccncc1Nc1ccc2c(c1)CCC2 [N^3-(Indan-5-yl)-3,4-pyridinediamine] | -49% |  |  | -75% | 
18 | C[C@]12CCC(=O)C=C1CC[C@@H]1[C@@H]2[C@@H](O)C[C@@]2(C)[C@H]1CC[C@]2(O)C(=O)CO [hydrocortisone, reference compound] |  |  |  |  | ED50 (Standard) ([2]; PIPE standard, rat paw): 0.46 M; ED50 (Standard) ([3]; TPAEE standard, mouse): 47 μg/ear
19 | COc1ccc2c(c1)c(CC(=O)O)c(C)n2C(=O)c1ccc(Cl)cc1 [indomethacin, reference compound] |  |  |  |  | ED50 (Standard) ([1]; AAEE standard): 1.5 mg/ear; IC50 ([4]; read-out: IC50 (Standard)): 38 µM; ED50 (Standard) (epidermal DNA synthesis; in vivo DNA standard): 1.75 mg/animal
